Source: patent publication US20220087987A1, “A METHOD FOR TREATING SWI/SNF COMPLEX-DEFICIENT CANCERS COMPRISING GLUTATHIONE (GSH) METABOLIC PATHWAY INHIBITOR” (National Cancer Center, priority 2018, published 2022)
Like-named read-outs stand apart in the source and are kept apart here.

What was measured:
Assay type in all cases: cell-based, human
[1] = test system: ARID1A-proficient and ARID1A-deficient cancer cell lines; assay: Cell viability and colony formation in cancer cell line panel
GSH = assay: Detection of GSH in cells (GSH/GSSG-Glo, GSH-Glo); conditions: ARID1A-deficient versus ARID1A-proficient ovarian and other cancer cells
ROS = assay: Detection of ROS in cells (ROS-Glo); conditions: ARID1A-deficient versus ARID1A-proficient ovarian and other cancer cells
Procedure: GSH, ROS and apoptosis were detected using the GSH/GSSG-Glo Assay (Promega) and/or the GSH-Glo Assay (Promega), the ROS-Glo Assay (Promega), and the Caspase-Glo 3/7 Assay, respectively. To measure levels of GSH, ROS and apoptosis after drug treatment, cells were trypsinized, counted, reseeded at the specified density in 96-well plates and exposed to the indicated concentrations of drugs. After 16-48 hrs, luminescence was measured using an Envision Multi-label plate reader (PerkinElmer). To measure levels of GSH and ROS after siRNA-mediated knockdown, cell lines were transfected with siRNAs (25 nM) using Lipofectamine RNAiMAX. After 48 hrs, cells were trypsinized and transfected repeatedly with siRNAs (25 nM) using Lipofectamine RNAiMAX. Cells were trypsinized after a further 48 hrs, counted, and reseeded at the specified density in 96-well plates. After 72-120 hrs, luminescence was measured using an Envision Multi-label plate reader (PerkinElmer). Cell viability was also measured using the CellTiter-Glo Luminescent Cell Viability Assay (Promega). Caspase-3/7, GSH, and ROS levels were normalized against cell viability. The GSH/GSSG ratio was calculated as the GSH-GSSG signal divided by the GSSG/2 signal. Relative signal ratios in treated samples were normalized against untreated samples.

p53, p21 = assay: Immunoblot for p53 and p21; conditions: ARID1A-WT and ARID1A-KO HCT116; 50 μM PRIMA-1, 50 μM APR-246, 10 μM Nutlin3a, 16 hrs
Procedure: The soluble fractions of whole-cell lysates were mixed with SDS sample buffer. […] The soluble fractions were mixed with SDS sample buffer. Tumor samples derived from xenografts were weighed and washed with PBS. […] The homogenized tumor samples were diluted in an additional 450 μl of NETN420 buffer, incubated for 30 min on ice, and centrifuged at 4° C. for 10 min at 15,000 rpm. The soluble fractions of whole-cell lysates were mixed with SDS sample buffer. Proteins were separated by SDS-PAGE, transferred to PVDF membranes, and immunoblotted with the indicated antibodies. β-actin was used as a loading control. Membranes were blocked overnight at 4° C. or for 1 hr at 25° C. with PVDF Blocking Reagent for Can Get Signal (TOYOBO) and then probed with Can Get Signal Solution 1 (TOYOBO) containing primary antibodies. After washing with TBS containing 0.1% Tween 20, the membranes were incubated with TBS containing 0.1% Tween 20, 1% BSA, and horseradish peroxidase-conjugated anti-mouse or anti-rabbit secondary antibodies, and visualized using Western Lightning ECL Pro (Perkin Elmer). Chemiluminescence signals were measured using LAS-3000 Imaging System (Fujifilm). Signal intensities were measured using Multi Gauge software.

ARID1A-KO HCT116 cells = assay: Drug library screen, cell viability (CellTiter-Glo); conditions: Homo sapiens, HCT-116, 120 h, read-out: Cell viability, KO
Procedure, shortened: (§1)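 ARID1A-WT and ARID1A-KO HCT116 cells screened against the library; viability read after 5 days by CellTiter-Glo luminescence, expressed relative to DMSO-treated cells. Hits: KO viability below 40% with WT viability above 80%.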

[2] = as above; conditions: human
Procedure, shortened: as §1

[3] = HCT116 ARID1A-KO, 10 μM for 5 days, relative to cells treated with solvent (DMSO)
[4] = HCT116 ARID1A-WT, 10 μM for 5 days, relative to cells treated with solvent (DMSO), read-out: Cell viability, WT

Row | SMILES | viability at 10 µM (ARID1A-KO HCT116 cells; [3]) [%] | viability at 5 days, 10 μM [2, 4] [%] | further results
1 | CC(=O)OC[C@H]1O[C@@H]([S-])[C@H](OC(C)=O)[C@@H](OC(C)=O)[C@@H]1OC(C)=O.CCP(CC)CC.[Au+] [auranofin] |  |  | sensitivity of ARID1A-deficient versus ARID1A-proficient cancer cells ([1]; four ARID1A-proficient and six ARID1A-deficient cell lines, cell viability, colony formation): more sensitive to the TrxR inhibitor auranofin than ARID1A-proficient cells; GSH level in cancer cell lines (GSH): more evident in ARID1A-deficient cancer cells; ROS level in cancer cell lines (ROS): more evident in ARID1A-deficient cancer cells
2 | COc1ccc(C2=N[C@@H](c3ccc(Cl)cc3)[C@@H](c3ccc(Cl)cc3)N2C(=O)N2CCNC(=O)C2)c(OC(C)C)c1 [Nutlin3a] |  |  | expression of p53 and p21 (p53, p21): increased the p53 level and upregulated the p53 target p21
3 | O=C(O)c1cc(/N=N/c2ccc(S(=O)(=O)Nc3ccccn3)cc2)ccc1O [sulfasalazine] |  |  | sensitivity of ARID1A-deficient TOV21G versus ARID1A-proficient RMG-I ovarian cancer cells ([1]; cell viability after 3 days): more sensitive than ARID1A-proficient RMG-I ovarian cancer cells
4 | Nc1ncn([C@H]2C[C@H](O)[C@@H](CO)O2)c(=O)n1 [Decitabine] | 30.4 | 30.8 | 
5 | Cn1cnc2c(NCc3ccccc3)nc(NCCO)nc21 [Olomoucine] |  | 173 | viability at 10 µM (ARID1A-KO HCT116 cells): 122%
6 | CNC(=O)[C@H](Cc1c[nH]c2ccccc12)NC(=O)[C@@H](CC(=O)NO)CC(C)C [GM 6001] | 123 | 188 | 
7 | CC(C)(C)c1cc(O)ccc1O [t-Butylhydroquinone (BHQ), t-Butylhydroquinone] | 96.6 | 95.4 | 
8 | O=C(CCCCCCC(=O)Nc1ccccc1)NO [vorinostat] | 6.02 | 2.82 | 
9 | Cn1nnc2c(C(N)=O)ncn2c1=O [temozolomide] | 104 | 84.4 | 
10 | CSc1ccc(/C=C2/C(C)=C(CC(=O)O)c3cc(F)ccc32)cc1 [Sulindac sulfide] | 140 | 195 | 
11 | CCOC(=O)C1=C(C)NC(=S)NC1c1cccc(O)c1 (stereo not drawn) [Monastrol] | 104 | 102 | 
12 | CC[C@@]1(O)C[C@H](O[C@H]2C[C@H](N(C)C)[C@H](O[C@H]3C[C@H](O)[C@H](O[C@H]4CCC(=O)[C@H](C)O4)[C@H](C)O3)[C@H](C)O2)c2c(cc3c(c2O)C(=O)c2c(O)cccc2C3=O)[C@H]1C(=O)OC [Aclarubicin] | 5.53 |  | viability [2, 4]: 4.48%
13 | O=C1CCC(N2C(=O)c3ccccc3C2=O)C(=O)N1 (stereo not drawn) [thalidomide] | 107 | 95 | 
14 | CC1(C)CCC(C)(C)c2cc(NC(=O)c3ccc(C(=O)O)cc3)ccc21 [tamibarotene] | 101 | 77.3 | 
15 | Cc1cc(N)c2ccccc2[n+]1CCCCCCCCCC[n+]1c(C)cc(N)c2ccccc21 [Dequalinium] | 5.24 | 6.38 | 
16 | CC(C)[C@@H]1NC(=O)[C@H](C)OC(=O)[C@@H](C(C)C)NC(=O)[C@@H](C(C)C)OC(=O)[C@H](C(C)C)NC(=O)[C@H](C)OC(=O)[C@@H](C(C)C)NC(=O)[C@@H](C(C)C)OC(=O)[C@H](C(C)C)NC(=O)[C@H](C)OC(=O)[C@@H](C(C)C)NC(=O)[C@@H](C(C)C)OC1=O [Valinomycin] | 4.17 |  | viability [2, 4]: 3.65%
17 | CC1=C2C[C@H]3[C@@H](CC=C4C[C@@H](O)CC[C@@]43C)[C@@H]2CC[C@]12O[C@@H]1C[C@H](C)CN[C@H]1[C@H]2C [cyclopamine] | 86.7 |  | viability [2, 4]: 49.3%
18 | CCCOc1ccccc1-c1nc2nn[nH]c2c(=O)[nH]1 [Zaprinast] | 82.6 | 93.5 | 
19 | Cc1ccc2nc(NCCN)c3ncc(C)n3c2c1 [BMS-345541] | 19.7 | 11.9 | 
20 | CC(C)C[C@H](NC(=O)[C@H](Cc1ccccc1)NC(=O)c1cnccn1)B(O)O [bortezomib] | 5.81 | 3.06 | 
21 | C/C=C(/C)C(=O)O[C@H]1C(C)=C2[C@H]([C@@H]1OC(=O)CCCCCCC)[C@@](C)(OC(C)=O)C[C@H](OC(=O)CCC)[C@@]1(O)[C@H]2OC(=O)[C@@]1(C)O [Thapsigargin] |  |  | viability at 10 µM (ARID1A-KO HCT116 cells): 2.88%; viability at 5 days, 10 μM [2]: 2.63%
22 | CCCCCCCCCCC[C@@H](C[C@@H]1OC(=O)[C@H]1CCCCCC)OC(=O)[C@H](CC(C)C)NC=O [orlistat] | 86.1 | 84.6 | 
23 | O=C([O-])c1ccccc1O.[Na+] [Sodium salicylate] |  |  | viability at 10 µM (ARID1A-KO HCT116 cells): 125%; viability [2]: 177%
24 | Cc1ncc2ccccc2c1C#N [4-cyano-3-methylisoquinoline] | 164 | 143 | 
25 | CN1C(=O)[C@]2(Cc3cn([C@]45C[C@@]67SS[C@@](CO)(C(=O)N6[C@H]4Nc4ccccc45)N(C)C7=O)c4ccccc34)SS[C@@]1(CO)C(=O)N2C [Chetomin] | 4.69 |  | viability [2, 4]: 4.21%
26 | Oc1c2ccccc2c2c3c(cccc13)N=N2 [SP600125] | 105 | 172 | 
27 | C[C@@H](N)[C@H]1CC[C@H](C(=O)Nc2ccncc2)CC1 [Y27632] |  | 160 | viability at 10 µM (ARID1A-KO HCT116 cells): 98.6%
28 | Cc1cn(-c2cc(NC(=O)c3ccc(C)c(Nc4nccc(-c5cccnc5)n4)c3)cc(C(F)(F)F)c2)cn1 [nilotinib] | 91.6 | 85.8 | 
29 | CCOC(=O)C(C)(C)Oc1ccc(Cl)cc1 [Clofibrate] | 111 | 110 | 
